From ChEMBL document CHEMBL3044813, “Bloodbrain barrier permeability and transport studies of JLK1486: a new antiglioblastoma drug” (Med Chem Res, 2012)
The source made the active and inactive calls. The calls are words filed in the database; no cut-off is given here.

How the values were obtained:
Blood brain barrier = assay: Permeability across blood brain barrier of Rattus norvegicus Sprague-Dawley (rat) at 10 mg/kg, iv; format: ADME, organism-based; parameters: dose 10 mg/kg, route intravenous; conditions: in vivo
Glioma = assay: Antitumor activity against Homo sapiens (human) Glioma cells xenografted in transgenic mouse assessed as mouse survival; format: functional, cell-based
[1] = molecular target: T1, ATP-dependent translocase ABCB1 (Homo sapiens, UniProt P08183); assay: Inhibition of Verapamil-induced P-gp ATPase activity (unknown origin) at 1 uM by spectrophotometry (reference value: 90.7 nmol/mg/min)
T1 sequence (P08183 whole entry): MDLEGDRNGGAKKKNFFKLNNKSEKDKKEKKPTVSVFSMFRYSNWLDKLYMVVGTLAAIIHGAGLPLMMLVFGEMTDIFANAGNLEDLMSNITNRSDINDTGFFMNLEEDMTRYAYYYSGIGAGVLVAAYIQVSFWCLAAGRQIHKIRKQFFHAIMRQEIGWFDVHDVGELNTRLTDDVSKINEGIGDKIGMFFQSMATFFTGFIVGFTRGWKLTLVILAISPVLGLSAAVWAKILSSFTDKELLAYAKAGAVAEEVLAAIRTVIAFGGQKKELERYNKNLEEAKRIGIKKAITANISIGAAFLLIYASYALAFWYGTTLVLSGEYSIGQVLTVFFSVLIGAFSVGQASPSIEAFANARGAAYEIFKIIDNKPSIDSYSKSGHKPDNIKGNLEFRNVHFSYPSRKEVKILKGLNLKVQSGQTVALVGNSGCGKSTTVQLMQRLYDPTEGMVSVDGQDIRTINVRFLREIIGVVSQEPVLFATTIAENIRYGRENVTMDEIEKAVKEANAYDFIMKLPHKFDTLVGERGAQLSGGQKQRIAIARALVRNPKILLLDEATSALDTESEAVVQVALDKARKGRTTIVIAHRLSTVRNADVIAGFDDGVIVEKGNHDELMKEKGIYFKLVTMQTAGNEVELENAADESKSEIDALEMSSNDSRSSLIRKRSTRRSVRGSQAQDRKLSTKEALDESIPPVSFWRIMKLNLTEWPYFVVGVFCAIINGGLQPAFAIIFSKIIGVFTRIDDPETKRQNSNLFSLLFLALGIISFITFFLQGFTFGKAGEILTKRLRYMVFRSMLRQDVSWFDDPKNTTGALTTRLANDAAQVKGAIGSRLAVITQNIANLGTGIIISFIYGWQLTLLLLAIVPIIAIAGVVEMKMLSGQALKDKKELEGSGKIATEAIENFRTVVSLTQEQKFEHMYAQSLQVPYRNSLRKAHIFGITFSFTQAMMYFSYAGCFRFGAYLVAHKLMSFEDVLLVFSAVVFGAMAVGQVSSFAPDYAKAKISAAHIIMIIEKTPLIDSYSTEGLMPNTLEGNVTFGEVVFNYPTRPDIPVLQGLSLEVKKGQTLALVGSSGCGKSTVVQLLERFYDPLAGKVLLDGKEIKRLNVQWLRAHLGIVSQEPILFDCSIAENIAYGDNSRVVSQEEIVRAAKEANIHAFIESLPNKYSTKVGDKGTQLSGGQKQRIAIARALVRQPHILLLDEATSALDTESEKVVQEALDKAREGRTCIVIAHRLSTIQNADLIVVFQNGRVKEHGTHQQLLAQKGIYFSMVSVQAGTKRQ

Cerebrospinal fluid = assay: Drug uptake in Rattus norvegicus Sprague-Dawley (rat) CSF at 10 mg/kg, iv after 1 hr by HPLC analysis; format: ADME, organism-based; parameters: dose 10 mg/kg, route intravenous; conditions: in vivo
[2] = molecular target: T1, ATP-dependent translocase ABCB1; assay: Inhibition of Progesterone-induced P-gp ATPase activity (unknown origin) at 10 uM by spectrophotometry (reference value: 61.5 nmol/mg/min)
[3] = molecular target: T1, ATP-dependent translocase ABCB1; assay: Inhibition of Progesterone-induced P-gp ATPase activity (unknown origin) at 1 uM by spectrophotometry (reference value: 61.5 nmol/mg/min)
[4] = molecular target: T1, ATP-dependent translocase ABCB1; assay: Modulation of P-gp ATPase activity (unknown origin) at 1 uM by spectrophotometry (RvB = 30.2 nmol/mg/min)
[5] = molecular target: T1, ATP-dependent translocase ABCB1; assay: Modulation of P-gp ATPase activity (unknown origin) at 10 uM by spectrophotometry (RvB = 30.2 nmol/mg/min)
[6] = molecular target: T1, ATP-dependent translocase ABCB1; assay: Inhibition of Verapamil-induced P-gp ATPase activity (unknown origin) at 10 uM by spectrophotometry (reference value: 90.7 nmol/mg/min)
[7] = molecular target: T1, ATP-dependent translocase ABCB1; assay: Inhibition of Vinblastine-induced P-gp ATPase activity (unknown origin) at 10 uM by spectrophotometry (reference value: 42.8 nmol/mg/min)
[8] = molecular target: T1, ATP-dependent translocase ABCB1; assay: Inhibition of Vinblastine-induced P-gp ATPase activity (unknown origin) at 1 uM by spectrophotometry (reference value: 42.8 nmol/mg/min)
Brain = assay: Drug uptake in Rattus norvegicus Sprague-Dawley (rat) brain at 10 mg/kg, iv by HPLC analysis; format: ADME, organism-based; parameters: dose 10 mg/kg, route intravenous; conditions: in vivo

Row | pBBB (Blood brain barrier) [×10⁻³ cm/s] | Activity [1] [nmol/mg/min] | Drug uptake (Cerebrospinal fluid) [%] | Activity [2] [nmol/mg/min] | Activity [3] [nmol/mg/min] | Activity [4] [nmol/mg/min] | Activity [5] [nmol/mg/min] | Activity [6] [nmol/mg/min] | Activity [7] [nmol/mg/min] | Activity [8] [nmol/mg/min] | Drug uptake (Brain) [%] | SMILES | Activity (Glioma)
1 | 2.7 | – | – | – | – | – | – | – | – | – | – | Cn1nnc2c(C(N)=O)ncn2c1=O [TEMOZOLOMIDE] | Active
2 | – | 84.5 | 0.037 | 51.8 | 54.8 | 31.3 | 33.1 | 77.1 | 30.8 | 34.3 | 2.2 | Oc1ccc(CN(Cc2ccc(C(F)(F)F)cc2)Cc2ccc(O)c3ncccc23)c2cccnc12 | Active
